A short description of the data set: Water solubility of the p-toluenesulfonic acid salt at different pH. Type of data set: physicochemical. The procedure: The water solubility of p-toluenesulfonic acid salt of the compound represented by the above formula (IA), namely 17-(cyclopropylmethyl)-6,7-didehydro-4,5α-epoxy-3,6,14-trihydroxy-N-[2-(3-phenyl-1,2,4-oxadiazol-5-yl) propan-2-yl]morphinan-7-carboxamide 4-methylbenzene sulfonic acid is more than 1,000 μg/mL in pH 1 or 4, but the water solubility in pH 7 decreases than the solubility in pH 1 or 4.

Water solubility and solubility data for one compound are collected here from patent publication US11116727B2, “Preparation containing 6,7-unsaturated-7-carbamoyl morphinan derivatives” (Shionogi & Co., Ltd., priority 2012, dated 2021).

SMILES strings stand for the structures.

For `CC(C)(NC(=O)C1=C(O)[C@@H]2Oc3c(O)ccc4c3[C@@]23CCN(CC2CC2)[C@H](C4)[C@]3(O)C1)c1nc(-c2ccccc2)no1` [17-(cyclopropylmethyl)-6,7-didehydro-4,5α-epoxy-3,6,14-trihydroxy-N-[2-(3-phenyl-1,2,4-oxadiazol-5-yl)propan-2-yl]morphinan-7-carboxamide 4-methylbenzenesulfonic acid], the water solubility entry (pH 7, compared with pH 1 or 4) was “decreases”. For the same compound, the solubility (water, simulated gastric fluid, pH 1 or 4) was greater than 1000 µg/mL.
